From patent US7842324B2 (Senomyx, Inc., priority 2005, dated 2010) come the findings set out here.

Molecules are shown by their SMILES.

The target in the experiment is T1, hT1R2/hT1R3 sweet receptor expressed in HEK293 cell line (Homo sapiens, UniProt Q7RTX0+Q8TE23).
T1 construct: expressed in transfected cells; host or cells: HEK293 derivative stably expressing Gα15 and hT1R2/hT1R3, clone S-9
T1 sequence (Q8TE23 20-839): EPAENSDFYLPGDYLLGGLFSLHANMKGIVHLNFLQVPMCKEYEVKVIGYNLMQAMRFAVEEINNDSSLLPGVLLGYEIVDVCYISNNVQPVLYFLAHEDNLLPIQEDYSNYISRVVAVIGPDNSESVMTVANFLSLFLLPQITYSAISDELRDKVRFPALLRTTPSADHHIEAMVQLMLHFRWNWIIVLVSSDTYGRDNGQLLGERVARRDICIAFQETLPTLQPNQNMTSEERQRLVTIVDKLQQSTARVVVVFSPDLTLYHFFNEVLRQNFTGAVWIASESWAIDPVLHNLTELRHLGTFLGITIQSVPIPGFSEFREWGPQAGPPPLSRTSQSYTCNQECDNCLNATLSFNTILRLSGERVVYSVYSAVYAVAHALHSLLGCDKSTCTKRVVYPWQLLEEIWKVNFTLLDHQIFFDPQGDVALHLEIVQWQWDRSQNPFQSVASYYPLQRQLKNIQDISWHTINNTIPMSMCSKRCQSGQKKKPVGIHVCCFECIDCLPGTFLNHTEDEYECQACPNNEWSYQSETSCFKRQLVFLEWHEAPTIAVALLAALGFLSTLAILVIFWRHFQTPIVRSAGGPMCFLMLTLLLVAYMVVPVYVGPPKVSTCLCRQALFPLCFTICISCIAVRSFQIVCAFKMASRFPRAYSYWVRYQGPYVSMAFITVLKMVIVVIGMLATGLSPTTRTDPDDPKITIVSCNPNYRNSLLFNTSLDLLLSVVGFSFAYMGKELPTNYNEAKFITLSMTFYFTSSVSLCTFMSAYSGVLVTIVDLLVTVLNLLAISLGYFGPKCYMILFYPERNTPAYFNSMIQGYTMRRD
T1 sequence (Q7RTX0 21-852): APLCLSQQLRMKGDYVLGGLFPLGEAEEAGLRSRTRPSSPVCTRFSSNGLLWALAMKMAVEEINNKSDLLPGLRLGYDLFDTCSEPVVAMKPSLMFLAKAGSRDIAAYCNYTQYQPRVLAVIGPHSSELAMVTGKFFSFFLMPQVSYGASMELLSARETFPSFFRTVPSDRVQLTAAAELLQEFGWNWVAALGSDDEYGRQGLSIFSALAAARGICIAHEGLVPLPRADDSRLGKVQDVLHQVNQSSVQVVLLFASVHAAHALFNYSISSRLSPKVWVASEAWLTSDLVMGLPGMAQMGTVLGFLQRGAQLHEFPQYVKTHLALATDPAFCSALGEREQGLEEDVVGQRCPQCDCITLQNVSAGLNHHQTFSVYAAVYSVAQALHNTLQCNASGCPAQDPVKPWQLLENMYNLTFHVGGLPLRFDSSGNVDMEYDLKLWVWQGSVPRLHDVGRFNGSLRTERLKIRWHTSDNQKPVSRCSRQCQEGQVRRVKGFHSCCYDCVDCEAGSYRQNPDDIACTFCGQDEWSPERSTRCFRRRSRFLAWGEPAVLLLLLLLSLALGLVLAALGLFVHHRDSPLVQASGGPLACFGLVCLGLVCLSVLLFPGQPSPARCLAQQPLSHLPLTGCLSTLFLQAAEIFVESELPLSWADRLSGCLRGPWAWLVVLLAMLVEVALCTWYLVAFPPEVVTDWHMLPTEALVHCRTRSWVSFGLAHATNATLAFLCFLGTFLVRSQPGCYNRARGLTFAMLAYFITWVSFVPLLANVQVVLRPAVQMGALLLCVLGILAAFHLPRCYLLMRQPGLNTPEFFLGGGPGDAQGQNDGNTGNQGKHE
Put plainly: In vitro hT1R2/hT1R3-HEK293 taste receptor activation assay (FLIPR). The note with it: read-out: EC50 for activation of a hT1R2/hT1R3 sweet receptor expressed in HEK293 cell line. The format is cell-based. In short, it runs like this: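 HEK293 cells stably expressing Gα15 and hT1R2/hT1R3 were loaded with Fluo-3AM (4 μM, 1 h, room temperature), then stimulated at room temperature in D-PBS. Peak fluorescence (ex 480/em 535 nm) was normalized to basal. Dose-responses were run in duplicate over 60 nM–30 μM, normalized to 400 mM D-fructose, and EC50 fitted by free-Hill non-linear regression.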

For `CC(C)CNC(=O)C(C)(C)c1ccc(-c2cncc(C#N)c2)cc1` [Compound 23, 2-(4-(5-cyanopyridin-3-yl)phenyl)-N-isobutyl-2-methylpropanamide], the EC50 turned out to be 150 nM.
